In ChEMBL document CHEMBL3120135, “Inhibition of glutamate racemase by substrate-product analogues” (Bioorg Med Chem Lett, 2014):

Legend:
[1] = Inhibition of Fusobacterium nucleatum recombinant N-terminal hexahistidine-tagged glutamate racemase expressed in Escherichia coli BL21 (DE3) using L-glutamate as substrate by circular dichroism based assay
[2] = system: Fusobacterium nucleatum; test: (§1) Mixed-type inhibition of Fusobacterium nucleatum recombinant N-terminal hexahistidine-tagged glutamate racemase expressed in Escherichia coli BL21 (DE3) using L-glutamate as substrate by Michaelis-Menten plot analysis
[3] = as §1
[4] = system: Fusobacterium nucleatum; test: Inhibition of Fusobacterium nucleatum recombinant N-terminal hexahistidine-tagged glutamate racemase expressed in Escherichia coli BL21 (DE3) using L-glutamate as substrate at 64 mM by circular dichroism based assay
[5] = Noncompetitive inhibition of Bacillus subtilis glutamate racemase
[6] = Inhibition of Bacillus subtilis glutamate racemase
[7] = system: Fusobacterium nucleatum; test: Inhibition of Fusobacterium nucleatum recombinant N-terminal hexahistidine-tagged glutamate racemase expressed in Escherichia coli BL21 (DE3) using L-glutamate as substrate at 50 mM by circular dichroism based assay
[8] = Partial noncompetitive inhibition of Fusobacterium nucleatum recombinant N-terminal hexahistidine-tagged glutamate racemase expressed in Escherichia coli BL21 (DE3) using L-glutamate as substrate by Michaelis-Menten plot analysis
[9] = system: Fusobacterium nucleatum; test: Inhibition of Fusobacterium nucleatum recombinant N-terminal hexahistidine-tagged glutamate racemase expressed in Escherichia coli BL21 (DE3) using L-glutamate as substrate at 40 mM by circular dichroism based assay

O=C1CCS(=O)(=O)CC1
IC50 [1]: 21.2 mM | alphaKi [2]: 28 mM | Ki [3]: 18.4 mM

NC(CCP(=O)(O)O)C(=O)O (racemic)
inhibition [4]: 15%

O=C(O)c1cccc(C(=O)O)n1 [DIPICOLINIC ACID]
Ki [5]: 92 µM | Ki [6]: 2.7 mM

O=C1CCP(=O)(O)CC1
IC50 [1]: 47.7 mM

O=C(O)CCP(=O)(O)CCC(=O)O
inhibition [7]: 40% | IC50 [1]: 60.4 mM

NC1(C(=O)O)CCP(=O)(O)CC1 (stereo not drawn)
Ki [8]: 3.1 mM | IC50 [1]: 24.1 mM

NC1(C(=O)O)CCS(=O)(=O)CC1
inhibition [9]: 30% | IC50 [1]: 215 mM
